Measurements: US9550796B2, “Pyrrolopyrrolone derivatives and their use as BET inhibitors” (NOVARTIS AG, priority 2013, dated 2017)

How the values were obtained:
[1] = molecular target: CREBBP (Homo sapiens (Human), UniProt Q92793); assay: AlphaScreen in-vitro binding assay for CREBBP; conditions: 324 nM His-CREBBP (1081-1197), acetyl-histone H4 (AcK 5, 8, 12) peptide
In short: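 IC50 values were derived by non-linear regression of percent inhibition across 8 compound concentrations. Protein was His-tagged CREBBP bromodomain (1081-1197), peptide acetyl-histone H4 (AcK 5, 8, 12), in HEPES pH 7.5 buffer. Read-out was AlphaScreen with Ni-chelate acceptor and streptavidin donor beads, 35 min at 30° C then 60 min at RT.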

[2] = molecular target: BRD3 (Homo sapiens (Human), UniProt Q15059); assay: TR-FRET in-vitro binding assay for BRD3; conditions: 45 nM His-Brd3(20-477), acetyl-histone H4 (AcK 5, 8, 12, 16) peptide
In short: (§1)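 TR-FRET binding read after 35 min incubation at 30° C. Compounds dispensed from 90% DMSO solutions and tested at 8 concentrations in a 13.55 μL total reaction volume.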

[3] = test system: THP-1; assay: Cell growth inhibition assay (CellTiter-Glo), THP-1; type: cell-based, human; conditions: THP-1 cells, 4 days; for GI50: Homo sapiens, 96 h, half-maximal growth inhibition; for THP-1 TGI: total growth inhibition
In short: (§2)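 Seed cells in their own media; add compound as 3-fold dilutions from 10 μM (0.1% DMSO final). Incubate 4 days at 37 °C, 5% CO2, then add CTG and read luminescence. Subtract no-cell background, correct to a day 0 plate, and fit IC50 and TGI.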

[4] = molecular target: BRD2 (Homo sapiens (Human), UniProt P25440); assay: TR-FRET in-vitro binding assay for BRD2; conditions: 45 nM His-Brd2(60-472), acetyl-histone H4 (AcK 5, 8, 12, 16) peptide
Protocol: TR-FRET In-Vitro Binding Assays for BRD2, BRD3, and BRD4: All assays were performed in 384-well microtiter plates. […] Liquid handling and incubation steps were done on an Innovadyne Nanodrop Express equipped with a robotic arm (Thermo CatX, Perkin Elmer/Caliper Twister II) and an incubator (Liconic STX40, Thermo Cytomat 2C450). The assay plates were prepared by addition of 50 nl per well of compound solution in 90% DMSO HummingBird nanodispenser (Zinsser Analytic). […] Reactions were incubated at 30° C. for 35 minutes. […] After 35 minutes incubation at 30° C., plates were measured in a Perkin Elmer EnVision multilabel reader. […] The stock solutions were stored at […] if not used immediately. For the test procedure the vials were defrosted and identified by a scanner whereby a working sheet was generated that guided the subsequent working steps. Compound dilutions were made in 96 well plates. This format enabled the assay of maximally […] at 8 concentrations (single points) including 4 reference compounds, if desired (known BET inhibitors from the prior art, for this and other assays of the type disclosed herein). The dilution protocol included the production of “pre-dilution plates”, “master plates” and “assay plates”. Polypropylene 96-well plates were used as pre-dilution plates. […] All dilution steps were done on a HamiltonSTAR robot. […] Identical “assay plates” were then prepared by pipetting 50 nL each of compound dilutions of the “master plates” into 384-well “assay plates” by means of a HummingBird 384-channel dispenser. These plates were used directly for the assay which was performed in a total volume of 13.55 μL.

[5] = test system: MV-4-11; assay: Cell growth inhibition assay (CellTiter-Glo), MV-4-11; type: cell-based, human; conditions: MV-4-11 cells, 4 days; for GI50: Homo sapiens, MV4-11, 96 h, half-maximal growth inhibition; for MV-4-11 TGI: total growth inhibition
In short: as §2

[6] = test system: K-562; assay: Cell growth inhibition assay (CellTiter-Glo), K-562; type: cell-based, human; conditions: K-562 cells, 4 days; for GI50: Homo sapiens, K562, 96 h, half-maximal growth inhibition; for K-562 TGI: total growth inhibition
In short: as §2

[7] = molecular target: BRD4 (Homo sapiens (Human), UniProt O60885); assay: TR-FRET in-vitro binding assay for BRD4; conditions: 45 nM His-Brd4(44-477), acetyl-histone H4 (AcK 5, 8, 12, 16) peptide
In short: as §1

Sequence of CREBBP (Q92793 1081-1197): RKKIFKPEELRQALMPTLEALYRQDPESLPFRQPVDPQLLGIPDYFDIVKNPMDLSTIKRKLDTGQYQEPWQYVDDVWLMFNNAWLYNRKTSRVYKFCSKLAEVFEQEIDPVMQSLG
Sequence of BRD2 (P25440 60-472): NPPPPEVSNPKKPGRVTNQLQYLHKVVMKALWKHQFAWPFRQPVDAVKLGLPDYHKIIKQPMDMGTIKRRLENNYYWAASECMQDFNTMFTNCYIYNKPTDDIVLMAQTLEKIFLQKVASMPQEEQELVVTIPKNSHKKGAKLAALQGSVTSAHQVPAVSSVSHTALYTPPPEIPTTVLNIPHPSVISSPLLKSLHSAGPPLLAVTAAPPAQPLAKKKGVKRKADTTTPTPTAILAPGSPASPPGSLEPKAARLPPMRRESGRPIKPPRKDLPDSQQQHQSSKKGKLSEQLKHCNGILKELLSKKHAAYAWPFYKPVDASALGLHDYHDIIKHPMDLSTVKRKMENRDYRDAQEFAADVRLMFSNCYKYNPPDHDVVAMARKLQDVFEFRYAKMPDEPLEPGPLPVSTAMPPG
Sequence of BRD3 (Q15059 20-477): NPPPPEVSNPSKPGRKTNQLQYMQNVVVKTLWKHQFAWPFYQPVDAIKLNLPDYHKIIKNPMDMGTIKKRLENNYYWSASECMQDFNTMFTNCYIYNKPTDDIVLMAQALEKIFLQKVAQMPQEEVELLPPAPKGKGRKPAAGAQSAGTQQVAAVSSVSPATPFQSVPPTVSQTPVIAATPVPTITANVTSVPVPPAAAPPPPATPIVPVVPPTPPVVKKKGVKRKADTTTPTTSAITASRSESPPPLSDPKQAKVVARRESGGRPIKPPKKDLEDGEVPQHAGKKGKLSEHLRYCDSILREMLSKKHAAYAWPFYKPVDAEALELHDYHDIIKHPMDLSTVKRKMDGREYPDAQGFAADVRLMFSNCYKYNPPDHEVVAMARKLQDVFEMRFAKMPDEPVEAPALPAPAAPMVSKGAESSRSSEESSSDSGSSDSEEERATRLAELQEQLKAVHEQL

Row | Structure (SMILES) | IC50 [1] | IC50 [2] | GI50 [3] | IC50 [4] | GI50 [5] | GI50 [6] | IC50 [7] | THP-1 TGI [3] | MV-4-11 TGI [5] | K-562 TGI [6]
1 | COCn1cc(C)c2c1C(c1ccc(Cl)cc1)N(c1cc(C)c3nnn(C)c3n1)C2=O (centres unmarked) [Example 2, 6-(4-chlorophenyl)-5-(3,7-dimethyl-3H-[1,2,3]triazolo[4,5-b]pyridin-5-yl)-1-(methoxymethyl)-3-methyl-5,6-dihydropyrrolo[3,4-b]pyrrol-4(1H)-one] | > 37000 nM | 16 nM | 15.1 nM | 23 nM | 7.66 nM | 62.1 nM | 12 nM | 34.7 nM | 19.7 nM | >10000 nM
2 | Cc1c[nH]c2c1C(=O)N(c1cc(C)c3nnc(C)n3c1)C2c1ccc(Cl)cc1 (centres unmarked) [Example 3, 6-(4-chlorophenyl)-5-(3,8-dimethyl-[1,2,4]triazolo[4,3-a]pyridin-6-yl)-3-methyl-5,6-dihydropyrrolo[3,4-b]pyrrol-4(1H)-one] | 8200 nM | 16 nM | 15.7 nM | 24 nM | 7.68 nM | 55.4 nM | 14 nM | 36.9 nM | 18.75 nM | >10000 nM
3 | Cc1cn(C2CN(C)C2)c2c1C(=O)N(c1cc(C)c3nnc(C)n3c1)C2c1ccc(Cl)cc1 (centres unmarked) [Example 5, 6-(4-chlorophenyl)-5-(3,8-dimethyl-[1,2,4]triazolo[4,3-a]pyridin-6-yl)-3-methyl-1-(1-methylazetidin-3-yl)-5,6-dihydropyrrolo[3,4-b]pyrrol-4(1H)-one] | 6300 nM | 25 nM | 12.1 nM | 45 nM | 6.3 nM | 47.8 nM | 24 nM | 36.2 nM | 13.05 nM | >10000 nM
4 | CC(=O)N1CC(n2cc(C)c3c2C(c2ccc(Cl)cc2)N(c2cc(C)c4nnc(C)n4c2)C3=O)C1 (centres unmarked) [Example 7, 1-(1-acetylazetidin-3-yl)-6-(4-chlorophenyl)-5-(3,8-dimethyl-[1,2,4]triazolo[4,3-a]pyridin-6-yl)-3-methyl-5,6-dihydropyrrolo[3,4-b]pyrrol-4(1H)-one] | 7600 nM | 16 nM | 196 nM | 32 nM | 50.2 nM | 2060 nM | 17 nM | 449.5 nM | 135.8 nM | >10000 nM
5 | CNC(=O)n1cc(C)c2c1C(c1ccc(Cl)cc1)N(c1cc(C)c3nnc(C)n3c1)C2=O (centres unmarked) [Example 9, 6-(4-chlorophenyl)-5-(3,8-dimethyl-[1,2,4]triazolo[4,3-a]pyridin-6-yl)-N,3-dimethyl-4-oxo-5,6-dihydropyrrolo[3,4-b]pyrrole-1(4H)-carboxamide] | 6000 nM | 15 nM | 17.1 nM | 28 nM | 13 nM | 78.7 nM | 24 nM | 43.3 nM | 26.75 nM | >10000 nM
6 | Cc1cn(C(=O)N(C)C)c2c1C(=O)N(c1cc(C)c3nnc(C)n3c1)C2c1ccc(Cl)cc1 (centres unmarked) [Example 10, 6-(4-chlorophenyl)-5-(3,8-dimethyl-[1,2,4]triazolo[4,3-a]pyridin-6-yl)-N,N,3-trimethyl-4-oxo-5,6-dihydropyrrolo[3,4-b]pyrrole-1(4H)-carboxamide] | 14500 nM | 34 nM | 29.8 nM | 55 nM | 19.4 nM | 102 nM | 33 nM | 69.85 nM | 36.25 nM | >10000 nM
7 | CCOC(=O)n1cc(C)c2c1C(c1ccc(Cl)cc1)N(c1cc(C)c3nnc(C)n3c1)C2=O (centres unmarked) [Example 11, Ethyl 6-(4-chlorophenyl)-5-(3,8-dimethyl-[1,2,4]triazolo[4,3-a]pyridin-6-yl)-3-methyl-4-oxo-5,6-dihydropyrrolo[3,4-b]pyrrole-1(4H)-carboxylate] | 7300 nM | 50 nM | 26 nM | 39 nM | 18.7 nM | 113 nM | 38 nM | 58.95 nM | 31.55 nM | >10000 nM
8 | COCC(=O)N1CC(n2cc(C)c3c2C(c2ccc(Cl)cc2)N(c2cc(C)c4nnc(C)n4c2)C3=O)C1 (centres unmarked) [Example 12, 6-(4-chlorophenyl)-5-(3,8-dimethyl-[1,2,4]triazolo[4,3-a]pyridin-6-yl)-1-(1-(2-methoxyacetyl)azetidin-3-yl)-3-methyl-5,6-dihydropyrrolo[3,4-b]pyrrol-4(1H)-one] | 23900 nM | 52 nM | 219 nM | 80 nM | 74.8 nM | 1050 nM | 54 nM | 618.5 nM | 149 nM | >10000 nM

Continued by falling IC50 [1], values first:

Row | IC50 [1] | IC50 [2] | GI50 [3] | IC50 [4] | GI50 [5] | GI50 [6] | IC50 [7] | Structure (SMILES) | THP-1 TGI [3] | MV-4-11 TGI [5] | K-562 TGI [6]
9 | 6000 nM | 23 nM | 10.6 nM | 40 nM | 6.74 nM | 50.5 nM | 17 nM | Cc1cn(C2COC2)c2c1C(=O)N(c1cc(C)c3nnc(C)n3c1)C2c1ccc(Cl)cc1 (centres unmarked) [Example 6, 6-(4-chlorophenyl)-5-(3,8-dimethyl-[1,2,4]triazolo[4,3-a]pyridin-6-yl)-3-methyl-1-(oxetan-3-yl)-5,6-dihydropyrrolo[3,4-b]pyrrol-4(1H)-one] | 29.25 nM | 21.4 nM | >10000 nM
10 | 5200 nM |  | 45 nM | 31 nM | 19.9 nM | 241 nM |  | CC(=O)Nc1cn(C)c2c1C(=O)N(c1cc(C)c3nnc(C)n3c1)C2c1ccc(Cl)cc1 (centres unmarked) [Example 103, N-(6-(4-chlorophenyl)-5-(3,8-dimethyl-[1,2,4]triazolo[4,3-a]pyridin-6-yl)-1-methyl-4-oxo-1,4,5,6-tetrahydropyrrolo[3,4-b]pyrrol-3-yl)acetamide] | 119 nM | 52.6 nM | >10000 nM
11 | 5100 nM | 34 nM | 41.6 nM | 41 nM | 25.2 nM | 132 nM | 18 nM | CCOC(=O)N1CC(n2cc(C)c3c2C(c2ccc(Cl)cc2)N(c2cc(C)c4nnc(C)n4c2)C3=O)C1 (centres unmarked) [Example 8, Ethyl 3-(6-(4-chlorophenyl)-5-(3,8-dimethyl-[1,2,4]triazolo[4,3-a]pyridin-6-yl)-3-methyl-4-oxo-5,6-dihydropyrrolo[3,4-b]pyrrol-1(4H)-yl)azetidine-1-carboxylate] | 93.95 nM | 37.75 nM | >10000 nM
12 | 240 nM |  | 76.4 nM | 52 nM | 43.9 nM | 250 nM |  | Cn1cc(-c2cc3c(n2C2CC2)C(c2ccc(Cl)cc2)N(c2cc(Cl)c(=O)n(C)c2)C3=O)ccc1=O (centres unmarked) [Example 66, 5-(5-chloro-1-methyl-6-oxo-1,6-dihydropyridin-3-yl)-6-(4-chlorophenyl)-1-cyclopropyl-2-(1-methyl-6-oxo-1,6-dihydropyridin-3-yl)-5,6-dihydropyrrolo[3,4-b]pyrrol-4(1H)-one] | 135 nM | 87.45 nM | >10000 nM
